The results in this text go back to article PMC6514978, “Synthesis, Antibacterial Activities, Mode of Action and Acute Toxicity Studies of New Oxazolidinone-Fluoroquinolone Hybrids” (Molecules, 2019).

The test system of one assay is E. faecalis (ATCC29212). As to the kind of experiment: MIC, broth microdilution (CLSI), standard strain. The class given is cell-based. To be noted: Enterococcus faecalis. The text has this: (§1) 6 standard strains and 3 clinical isolates were used to the preliminary evaluation of in vitro antibacterial activities of oxazolidinone-fluoroquinolone hybrids. For the further evaluation of hybrids OBP-4 and OBP-5, 263 clinical isolates including S. aureus (46), S. haemolyticus(32), S. epidermidis (10), E. faecalis (72), E. faecium (47), S. pneumoniae (13), H. parasuis (34), S. suis (9), and 8 resistant strains including MRSA, MRSE, CIP-resistant S. aureus and S. haemolyticus, VAN and quinolone-resistant S. pneumoniae, LZD-resistant E. faecalis, LZD/VAN and quinolone-resistant E. faecium were collected and tested.
(§2) Susceptibility testing of oxazolidinone-fluoroquinolone hybrids against various bacteria was performed by the broth microdilution method as outlined by the Clinical and Laboratory Standards Institute (CLSI). Three types of media, including cation-adjusted Mueller Hinton broth, Haemophilus Test Medium and cation-adjusted Mueller Hinton broth that contained 3%–5% lysed horse blood, were used to culture the corresponding bacteria. All compounds including comparator drugs were dissolved in an appropriate solvent at a concentration of 2.048 mg/mL and then serially diluted two-fold to provide the required concentrations. A final inoculum of 5 × 10^5 CFU/mL was used and plates were read after incubation for 16–24 h at 35 °C. […] Standard quality control strains (ATCC) were included throughout. Each determination was repeated in triplicate.

Assay [1] deals with P. Aeruginosa (ATCC27853). As to the kind of experiment: MIC, broth microdilution (CLSI), standard strain. The following applies: Pseudomonas aeruginosa; P. Aeruginosa (ATCC27853); read-out: MIC. The class given is cell-based.
From the text: as §1, §2
For orientation: In broth dilution the organism is exposed to a series of concentrations in liquid medium.

Assay [2] concerns S. pneumoniae (ATCC49619). In words: MIC, broth microdilution (CLSI), standard strain. The class given is cell-based. To be noted: Streptococcus pneumoniae.
From the text: as §1, §2

The subject of assay [3] is H. influenzae (ATCC49247). As to the kind of experiment: MIC, broth microdilution (CLSI), standard strain. In kind it is cell-based. The following applies: Haemophilus influenzae.
From the text: as §1, §2

In a further assay the test system is S. aureus (ATCC29213). In words: MIC, broth microdilution (CLSI), standard strain. To be noted: Staphylococcus aureus. The class given is cell-based.
From the text: as §1, §2

A further assay has as its system E. coli (ATCC25922). As to the kind of experiment: MIC, broth microdilution (CLSI), standard strain. In kind it is cell-based. The following applies: Escherichia coli; E. coli (ATCC25922); read-out: MIC.
From the text: as §1, §2

In the next assay the test system is VRE (13B330). In words: MIC, broth microdilution (CLSI), clinical isolate. The class given is cell-based, vancomycin-resistant enterococcus. To be noted: Enterococcus.
From the text: as §1, §2

The test system of another assay is MRSA (13B262). As to the kind of experiment: MIC, broth microdilution (CLSI), clinical isolate. The following applies: Staphylococcus aureus. In kind it is cell-based.
From the text: as §1, §2

Assay [4] relates to S. agalactiae^R (13B317), levofloxacin-resistant S. agalactiae. In words: MIC, broth microdilution (CLSI), clinical isolate. The class given is cell-based. To be noted: Streptococcus agalactiae; levofloxacin-resistant S. agalactiae (13B317).
From the text: as §1, §2

The mark [5] stands for this setting: E. faecalis (ATCC29212), read-out: MIC.

SMILES strings stand for the structures. ≈ marks a conversion by molar mass, not a printed value. Where two headings read alike, the source gives them in different places.

For `O=C(O)c1cn(C2CC2)c2cc(N3CCC(O)(COc4ccc(N5C[C@H](CO)OC5=O)cc4F)CC3)c(F)cc2c1=O` [CZD, cadazolid, reference compound], the MIC turned out to be 0.5 µg/mL (≈ 0.854 µM) in the assay with E. faecalis (ATCC29212) (setting [5]); 64 µg/mL (≈ 109 µM) in assay [1]; 0.062 µg/mL (≈ 0.106 µM) in assay [2]; 1 µg/mL (≈ 1.71 µM) in assay [3]; 0.5 µg/mL (≈ 0.854 µM) against S. aureus (ATCC29213); 8 µg/mL (≈ 13.7 µM) with E. coli (ATCC25922). Moreover, the MIC with VRE (13B330) turned out to be 0.25 µg/mL (≈ 0.427 µM); with MRSA (13B262) it was 0.5 µg/mL (≈ 0.854 µM); in assay [4], 0.125 µg/mL (≈ 0.213 µM).

Turning to `COc1c(N2C[C@@H]3CCCN[C@@H]3C2)c(F)cc2c(=O)c(C(=O)O)cn(C3CC3)c12` [MXF, moxifloxacin, reference compound], the MIC against E. faecalis (ATCC29212) (ATCC29212) came out at 0.125 µg/mL (≈ 0.311 µM); in assay [1], 4 µg/mL (≈ 9.96 µM); in assay [2], 0.062 µg/mL (≈ 0.154 µM); in assay [3], 0.008 µg/mL (≈ 0.0199 µM); against S. aureus (ATCC29213), 0.031 µg/mL (≈ 0.0772 µM); in the assay with E. coli (ATCC25922), 0.016 µg/mL (≈ 0.0399 µM). Besides, the MIC was 64 µg/mL (≈ 159 µM) against VRE (13B330), 8 µg/mL (≈ 19.9 µM) with MRSA (13B262) and 4 µg/mL (≈ 9.96 µM) in [4].

With `CN1COc2c(N3CCC(O)(COc4ccc(N5C[C@H](CO)OC5=O)cc4F)CC3)c(F)cc3c(=O)c(C(=O)O)cn1c23` [OBP-1], the MIC with E. faecalis (ATCC29212) (setting [5]) is 1 µg/mL (≈ 1.66 µM); in assay [1] it was 64 µg/mL (≈ 106 µM); in assay [2] it was 0.25 µg/mL (≈ 0.415 µM); in [3], 1 µg/mL (≈ 1.66 µM); with S. aureus (ATCC29213) it was 1 µg/mL (≈ 1.66 µM); in the assay on E. coli (ATCC25922) it was 4 µg/mL (≈ 6.64 µM). In addition, the MIC was 1 µg/mL (≈ 1.66 µM) against VRE (13B330), 2 µg/mL (≈ 3.32 µM) in the assay on MRSA (13B262) and 0.5 µg/mL (≈ 0.83 µM) in assay [4].

Regarding `C[C@H]1COc2c(N3CCC(O)(COc4ccc(N5C[C@H](CO)OC5=O)cc4F)CC3)c(F)cc3c(=O)c(C(=O)O)cn1c23` [OBP-2], the MIC in the assay on E. faecalis (ATCC29212) (setting [5]) came to 1 µg/mL (≈ 1.66 µM); in assay [1] it was 64 µg/mL (≈ 106 µM); in [2] it was 0.25 µg/mL (≈ 0.416 µM); in assay [3] it was 0.5 µg/mL (≈ 0.831 µM); in the assay on S. aureus (ATCC29213), 0.25 µg/mL (≈ 0.416 µM); with E. coli (ATCC25922), 4 µg/mL (≈ 6.65 µM). Further, the MIC in the assay on VRE (13B330) turned out to be 1 µg/mL (≈ 1.66 µM); with MRSA (13B262) it was 1 µg/mL (≈ 1.66 µM); in assay [4], 0.25 µg/mL (≈ 0.416 µM).
